Experimental data as given in paper PMC4161152 (Journal of Medicinal Chemistry, 2014).

Legend:
Assay type in all cases: cell-based
human MCT4 = target: T1, human MCT4 (Homo sapiens, UniProt O15427); experiment: 14C lactate uptake in MCF7_MCT4 cells; conditions: increased uptake versus parental MCF7 cells
T1 sequence (O15427 1-465): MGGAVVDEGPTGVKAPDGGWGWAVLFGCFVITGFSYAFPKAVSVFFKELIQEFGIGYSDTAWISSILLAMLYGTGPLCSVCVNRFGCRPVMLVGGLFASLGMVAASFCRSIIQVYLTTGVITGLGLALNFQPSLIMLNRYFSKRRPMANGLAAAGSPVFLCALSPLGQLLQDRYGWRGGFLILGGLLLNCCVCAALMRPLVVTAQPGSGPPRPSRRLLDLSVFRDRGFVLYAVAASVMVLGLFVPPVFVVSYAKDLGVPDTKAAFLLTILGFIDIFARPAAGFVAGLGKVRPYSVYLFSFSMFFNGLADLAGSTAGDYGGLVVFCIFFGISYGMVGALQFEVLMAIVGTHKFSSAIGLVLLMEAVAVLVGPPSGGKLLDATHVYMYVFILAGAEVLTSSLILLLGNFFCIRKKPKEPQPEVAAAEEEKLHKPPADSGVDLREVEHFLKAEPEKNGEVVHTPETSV

MCF7_MCT4 cells = experiment: MCF7_MCT4 MTT assay; conditions: Homo sapiens, 96 h, read-out: growth inhibition EC50, MCF7_MCT4 cells
[1] = test system: human Raji lymphoma cells; experiment: Raji lymphoma cell MTT assay
MCT1 = target: T2, MCT1 (Mus musculus, UniProt P53986); experiment: MCF7_MCT1 14C-lactate transport assay; conditions: IC50 (nM) lactate transport, labeled (14C) lactate transport, MCF7 breast cancer cells engineered to overexpress MCT1, 10 min on ice
T2 sequence (P53986 1-493): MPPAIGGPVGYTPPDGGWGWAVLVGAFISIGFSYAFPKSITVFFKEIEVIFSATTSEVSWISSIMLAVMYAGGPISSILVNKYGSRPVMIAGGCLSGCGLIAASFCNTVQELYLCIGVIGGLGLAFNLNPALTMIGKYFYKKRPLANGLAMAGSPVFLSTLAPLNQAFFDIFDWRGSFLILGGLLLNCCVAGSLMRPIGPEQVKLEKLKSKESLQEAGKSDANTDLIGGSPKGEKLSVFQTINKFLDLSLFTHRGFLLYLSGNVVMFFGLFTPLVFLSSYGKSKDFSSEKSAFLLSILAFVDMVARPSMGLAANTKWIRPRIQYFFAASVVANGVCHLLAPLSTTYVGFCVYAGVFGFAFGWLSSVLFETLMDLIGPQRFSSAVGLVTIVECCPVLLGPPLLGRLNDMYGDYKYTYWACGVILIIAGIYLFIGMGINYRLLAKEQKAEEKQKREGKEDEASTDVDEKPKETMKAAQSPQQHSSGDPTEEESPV

SMILES | activity in Raji lymphoma cell proliferation assay (in words) [1] | IC50 (MCT1) [nM] | other results
CC(C)Cc1nn(C)c(=O)c2c(SCCCO)n(Cc3cccc4ccccc34)cc12 [Compound 1, reference compound] |  |  | effect on 14C lactate uptake in MCF7_MCT4 cells (in words) (human MCT4): not inhibited; EC50 (MCF7_MCT4 cells): > 10 µM
CC(C)Cn1c(=O)n(C)c(=O)c2[nH]c(=O)c(Cc3cccc4ccccc34)nc21 [Compound 12] | inactive |  | 
CC(C)Cn1c(=O)n(C)c(=O)c2c1nc(Cc1cccc3ccccc13)c(=O)n2CCCCO [Compound 14b] |  | 548 | 
CC(C)Cn1c(=O)n(C)c(=O)c2c1nc(Cc1cccc3ccccc13)c(=O)n2CCCCCCO [Compound 14d] | inactive |  | 
CC(C)Cn1c(=O)n(C)c(=O)c2nc(SCCCO)c(Cc3cccc4ccccc34)nc21 [Compound 15b] |  | 858 | 
CC(C)Cn1c(=O)n(C)c(=O)c2nc(SCCCCO)c(Cc3cccc4ccccc34)nc21 [Compound 15c] |  |  | fold higher EC50 than clinical compound 2 [1]: 2–4 fold
CC(C)Cn1c(=O)n(C)c(=O)c2nc(CCCCO)c(Cc3cccc4ccccc34)nc21 [Compound 23a] |  | > 2000 | 
CC(C)Cn1c(=O)n(C)c(=O)c2nc(CCCCCO)c(Cc3cccc4ccccc34)nc21 [Compound 23b] |  | 192 | fold higher EC50 than clinical compound 2 [1]: 2–4 fold
CC(C)Cn1c(=O)n(C)c(=O)c2nc(/C=C\CCCO)c(Cc3cccc4ccccc34)nc21 [Compound 27] |  | 116 | fold higher EC50 than clinical compound 2 [1]: 2–4 fold
COCCCCCc1nc2c(=O)n(C)c(=O)n(CC(C)C)c2nc1Cc1cccc2ccccc12 [Compound 28] | largely inactive |  | 
Cc1n[nH]c(C)c1Cc1nc2c(nc1CCCCCO)c(=O)n(C)c(=O)n2CC(C)C [Compound 31] | inactive |  | 
